Data reported in patent publication US10160771B2, “Hepatitis C virus inhibitors and uses thereof in preparation of drugs” (priority 2014, dated 2018).

Tests used:
HCV-1b replicon cells = assay: Cell Titer-fluor cell activity assay in HCV-1b replicon cells (CC50); assay type: cell-based; settings: 3 days
How it was run: (§1)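 Con1 genotype 1b replicon cells (E1202G, T1280I, K1846T adaptive mutations), 8000 cells/well, exposed to 6-point 5-fold dilutions from 100, 10 or 1 nM top concentration in 0.5% DMSO, duplicate wells, 3 days at 37 °C. Viability read by Cell Titer-fluor (Ex 405/Em 515 nm) after 30 min; CC50 from nonlinear fit of inhibition %.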

[1] = test system: HCV genotype 1b (HCV-1b) replicon cells; assay: HCV genotype 1b replicon luciferase assay (EC50); assay type: cell-based, hepatitis C virus genotype 1b (Con1 clone); settings: 3 days, luciferase (Bright-Glo)
How it was run: (§2)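 H77-derived 1a (K1691R, K2040R, S2204I) or Con1-derived 1b (E1202G, T1280I, K1846T) luciferase replicon cells, 8000/well, exposed 3 days at 37° C. to 6-point 5-fold dilutions (top 100, 10 or 1 nM; 0.5% DMSO), in duplicate. Bright-Glo luminescence read; EC50 from nonlinear fit of % inhibition.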

[2] = test system: HCV genotype 1a (HCV-1a) replicon cells; assay: HCV genotype 1a replicon luciferase assay (EC50); assay type: cell-based, hepatitis C virus genotype 1a (H77 clone); settings: 3 days, luciferase (Bright-Glo)
How it was run: as §2

[3] = Cell Titer-fluor cell activity assay in HCV-1b replicon cells (CC50); assay type: cell-based
How it was run: as §1

in vitro = assay type: cell-based; settings: HCV 1a replicon cells, 3 days, Cell Titer-fluor
Protocol: The EC50 and CC50 values of anti-HCV compounds were determined by HCV genotype 1a (HCV-1a) and 1B (HCV-1b) stable transfer replication (replicon) cells. The source of genotype 1a replicon is H77 clones containing K1691R, K2040R and S2204I adaptive mutations. The source of genotype 1b replicon is Con1 clones containing E1202G, T1280I and K1846T adaptive mutations.
HCV Replicon Cell Lines: HCV-1a and HCV-1b Cells
The compound powder was dissolved in 100% DMSO. Then the compound was diluted 5 times with 6 points, and added into the cell plate with Echo liquid handler. Ensure the final concentration of DMSO was 0.5%. Each compound was tested in double holes. Maximum initial concentration was 100, 10 or 1 nM, 5 times dilution, 6 points.
b) Cell Culture (HCV-1a or HCV-1b Replicon Cell):
1) absorbing the culture supernatant of the cell culture and washing the cells with 10 mL PBS.
2) adding preheated pancreatin to the washed cell culture flasks, rotating culture bottle to make the bottom of the culture bottle uniformly covered by pancreatin, then placed into 37° C., 5% CO2 incubator to digest.
3) suspending cells in each T150 culture flask with 10-15 mL culture medium, absorbing 0.1 mL liquid and diluting 2 times by trypan blue solution as counted.
4) diluting cells to 8×10^4/mL with the culture medium, adding the diluted cells into the compound-containing 96-well plate (Greiner, Cat.#655090) (100 μL/well, 8000 cells/well) with automatic liquid separator (Thermo Scientific). Then place into a 37° C., 5% CO2 incubator for 3 days. Cell control well: no compound, only containing 0.5% DMSO.
5) adding chemiluminescent substrate Cell Titer-fluor to the cell well, after incubation for 30 minutes, detecting the signal by chemiluminescence detection system Envison (Ex at 405 nm and read at 515 nm). The effect of the compounds on the activity of HCV replicon cells was analyzed according to the luminescence data, which was used to calculate the CC50 values.
The EC50 or CC50 values were obtained by nonlinear fitting analysis on inhibition percentage (inh %) data with GraphPad Prism software.

Row | Structure (SMILES) | CC50 (HCV-1b replicon cells) | EC50 [1] | EC50 [2] | CC50 at 3 days [3] | CC50 (in vitro) | EC50 ([1]; Hepatitis C virus, 72 h) | EC50 ([2]; Hepatitis C virus, 72 h)
1 | COC(=O)N[C@H](C(=O)N1CCC[C@H]1c1ncc(-c2ccc(-c3ccc(-c4cnc(C5C6CCC(C6)[C@@H]5C(=O)N[C@H](c5cccnc5)C(C)C)[nH]4)cc3)cc2)[nH]1)[C@@H](C)OC (some centres unmarked) [AA_271_A] | > 1 nM | 0.001 to 0.1 nM | 0.101 to 1 nM | – | – | – | –
2 | COC(=O)N[C@H](C(=O)N1CCCC1c1ccc(-c2ccc(-c3ccc(-c4cnc([C@@H]5CCCN5C(=O)[C@@H](NC(=O)OC)[C@@H](C)OC)[nH]4)cc3)cc2)[nH]1)[C@@H](C)OC (single isomer, unassigned) [AG_072_B] | > 1 nM | 0.101 to 1 nM | 1 to 10 nM | – | – | – | –
3 | COC(=O)N[C@H](C(=O)N1CCC[C@H]1c1ncc(-c2ccc(-c3ccc(-c4cnc([C@H]5C6CCC(C6)[C@@H]5C(=O)NC(c5cccnc5)C(C)C)[nH]4)cc3)cc2)[nH]1)C(C)C (single isomer, unassigned) [AA_233_C] | > 1 nM | 0.101 to 1 nM | 10 to 100 nM | – | – | – | –
4 | COC(=O)NC(C(=O)N1CCC[C@H]1c1ncc(-c2ccc(-c3ccc(-c4[nH]c(C5CCCN5C(=O)[C@@H](NC(=O)OC)C(C)C)c5c4CCCC5)cc3)cc2)[nH]1)C1CCOC(C)C1 (some centres unmarked) [AG_047] | – | – | – | > 100 nM | > 100 nM | 0.101 to 1 nM | 10 to 100 nM
5 | COC(=O)N[C@H](C(=O)N1CC2(C[C@H]1c1ncc(-c3ccc(-c4ccc(-c5[nH]c([C@@H]6CCCN6C(=O)[C@@H](NC(=O)OC)[C@@H](C)OC)c6c5CCC6)cc4)cc3)[nH]1)OCCO2)[C@@H](C)OC [AG_089] | > 1 nM | 0.001 to 0.1 nM | 1 to 10 nM | – | – | – | –
6 | COC(=O)N[C@H](C(=O)N1CCCC1c1[nH]c(-c2ccc(-c3ccc(-c4cnc([C@@H]5CCCN5C(=O)[C@@H](NC(=O)OC)C(C)C)[nH]4)cc3)cc2)c2c1CCCC2)C(C)C (some centres unmarked) [AG_015] | – | – | – | > 10 nM | > 100 nM | 0.001 to 0.1 nM | 10 to 100 nM
7 | COC(=O)N[C@H](C(=O)N1CCC[C@H]1c1ncc(-c2ccc(-c3ccc(-c4cnc(C5C6CCC(C6)[C@H]5C(=O)N[C@H](c5cccnc5)C(C)C)[nH]4)cc3)cc2)[nH]1)[C@@H](C)OC (some centres unmarked) [AA_271_B] | > 1 nM | 0.101 to 1 nM | 10 to 100 nM | – | – | – | –
8 | COC(=O)N[C@H](C(=O)N1CCC[C@H]1c1[nH]c(-c2ccc(-c3ccc(-c4cnc([C@@H]5CCCCN5C(=O)[C@@H](NC(=O)OC)[C@@H](C)OC)[nH]4)cc3)cc2)c2c1COC2)C(C)OC (some centres unmarked) [AG_124] | – | – | – | > 1 nM | > 100 nM | 0.001 to 0.1 nM | 0.101 to 1 nM
9 | COC(=O)N[C@H](C(=O)N1CCC[C@H]1c1ncc(-c2ccc(-c3ccc(-c4[nH]c([C@@H]5CCCN5C(=O)[C@@H](NC(=O)OC)[C@@H](C)OC)c5c4COC5)cc3)cc2)[nH]1)[C@@H](C)OC [AG_080_A] | > 5 nM | 0.001 to 0.1 nM | 0.001 to 0.1 nM | – | – | – | –
10 | COC(=O)N[C@H](C(=O)N1CCC[C@H]1c1ncc(-c2ccc(-c3ccc(-c4cnc([C@H]5C6CCC(C6)[C@@H]5C(=O)NC(C)c5cccnc5)[nH]4)cc3)cc2)[nH]1)C(C)C (single isomer, unassigned) [AA_204_C] | > 1 nM | 0.001 to 0.1 nM | 1 to 10 nM | – | – | – | –
11 | COC(=O)N[C@H](C(=O)N1CCCC1c1ccc(-c2ccc(-c3ccc(-c4cnc([C@@H]5CCCN5C(=O)[C@@H](NC(=O)OC)C(C)C)[nH]4)cc3)cc2)[nH]1)C(C)C (some centres unmarked) [AG_001] | – | – | – | > 1 nM | > 10 nM | 0.001 to 0.1 nM | 1 to 10 nM
12 | COC(=O)NC(C(=O)N1CCC[C@H]1c1ncc(-c2ccc3cc(-c4ccc(-c5[nH]c(C6CCCN6C(=O)[C@@H](NC(=O)OC)C(C)C)c6c5CCC6)cc4)ccc3c2)[nH]1)C1CCOCC1 (some centres unmarked) [AG_051] | – | – | – | > 100 nM | > 100 nM | 0.101 to 1 nM | 1 to 10 nM
